Patent US12559474B2, “Triazine derivatives having virus replication inhibitory activity and pharmaceutical composition comprising the same” (priority 2021, dated 2026)
Where two headings read alike, the source gives them in different places.

Tests used:
SARS-CoV-2 = experiment: microbe, parasite or virus in culture; type: cell-based; settings: for EC50: Severe acute respiratory syndrome coronavirus 2, VeroE6/TMPRSS2, 72 h, 50% SARS-CoV-2 infected cell death inhibitory concentration, VeroE6/TMPRSS2 cells, 3 days culture; for coronavirus replication inhibitory activity: at concentrations up to 50 μM, tested as in Test Example 1 (Reference Example 1)
SARS-CoV-2 3CL protease = SARS-CoV-2 3CL protease (Severe acute respiratory syndrome coronavirus 2, UniProt P0DTD1); experiment: biochemical
[1] = 50% SARS-CoV-2 3CL protease inhibitory concentration, given as class symbols, read-out: IC50
[2] = 50% SARS-CoV-2 3CL protease inhibitory concentration, RapidFire MS, read-out: IC50

O=C1CCC(Nc2nc(=O)n(Cc3ccc[nH]c3=O)c(=O)n2Cc2cc(F)c(F)c(F)c2)CN1 (racemic) [Compound I-0133]
EC50 (SARS-CoV-2; class symbols): < 1000 nM
IC50 (SARS-CoV-2 3CL protease; [1]): 1000 to 10000 nM
IC50 (SARS-CoV-2 3CL protease; [2]): 3400 nM

COc1ccc(Nc2nc(=O)n(CC3CCNC3=O)c(=O)n2Cc2cc(F)c(F)c(F)c2)cc1 (racemic) [Compound I-0301]
EC50 (SARS-CoV-2; class symbols): < 1000 nM
IC50 (SARS-CoV-2 3CL protease; [1]): 1000 to 10000 nM
IC50 (SARS-CoV-2 3CL protease; [2]): 3800 nM

Cn1cnc(Cn2c(=O)nc(Nc3cc4cn(CC5CCO5)nc4cc3Cl)n(Cc3cc(Cl)c(F)cc3F)c2=O)n1 (racemic) [II-0408]
EC50 (SARS-CoV-2; class symbols): 1000 to 10000 nM
IC50 (SARS-CoV-2 3CL protease; [1]): < 100 nM

Cn1cnc(Cn2c(=O)nc(Nc3cc4cn(CC5CCCO5)nc4cc3Cl)n(Cc3cc(Cl)c(F)cc3F)c2=O)n1 (racemic) [II-0409]
EC50 (SARS-CoV-2; class symbols): 1000 to 10000 nM
IC50 (SARS-CoV-2 3CL protease; [1]): < 100 nM

Cc1nc2cc(Cl)c(Nc3nc(=O)n(Cc4ccc[nH]c4=O)c(=O)n3Cc3ccc(F)c(Cl)c3)cc2n1C [Compound I-0007]
EC50 (SARS-CoV-2; class symbols): 1000 to 10000 nM
IC50 (SARS-CoV-2 3CL protease; [1]): < 100 nM

Cn1cc2cc(Nc3nc(=O)n(Cc4ccc[nH]c4=O)c(=O)n3Cc3cc(F)cc(Cl)c3)c(Cl)cc2n1 [Compound I-0008]
EC50 (SARS-CoV-2; class symbols): 1000 to 10000 nM
IC50 (SARS-CoV-2 3CL protease; [1]): < 100 nM

Cn1cc2cc(Nc3nc(=O)n(Cc4ccc[nH]c4=O)c(=O)n3Cc3cc(F)c(F)cc3F)c(Cl)cc2n1 [Compound I-0009]
EC50 (SARS-CoV-2; class symbols): < 1000 nM
IC50 (SARS-CoV-2 3CL protease; [1]): < 100 nM

N#Cc1cc(Cn2c(Nc3cc4c(cc3Cl)OCC4)nc(=O)n(Cc3ccc[nH]c3=O)c2=O)cc(F)c1F [Compound I-0011]
EC50 (SARS-CoV-2; class symbols): < 1000 nM
IC50 (SARS-CoV-2 3CL protease; [1]): < 100 nM

Cn1cc2cc(Nc3nc(=O)n(Cc4ccc[nH]c4=O)c(=O)n3Cc3cc(F)c(F)c(C#N)c3)c(Cl)cc2n1 [Compound I-0012]
EC50 (SARS-CoV-2; class symbols): 1000 to 10000 nM
IC50 (SARS-CoV-2 3CL protease; [1]): < 100 nM

N#Cc1cc(Cn2c(Nc3cc4c(cc3Cl)OCC4)nc(=O)n(Cc3ccc[nH]c3=O)c2=O)ccc1F [Compound I-0013]
EC50 (SARS-CoV-2; class symbols): 1000 to 10000 nM
IC50 (SARS-CoV-2 3CL protease; [1]): < 100 nM

O=c1[nH]cccc1Cn1c(=O)nc(Nc2cc3c(cc2Cl)OCC3)n(Cc2cc(F)c(F)cc2F)c1=O [Compound I-0016]
EC50 (SARS-CoV-2; class symbols): < 1000 nM
IC50 (SARS-CoV-2 3CL protease; [1]): < 100 nM

O=c1[nH]cccc1Cn1c(=O)nc(Nc2ccc3c(c2)CCCO3)n(Cc2cc(F)c(F)c(F)c2)c1=O [Compound I-0019]
EC50 (SARS-CoV-2; class symbols): 1000 to 10000 nM
IC50 (SARS-CoV-2 3CL protease; [1]): < 100 nM

COc1ccc(Nc2nc(=O)n(Cc3ccc[nH]c3=O)c(=O)n2Cc2cc(F)c(F)c(F)c2)cc1 [Compound I-0020]
EC50 (SARS-CoV-2; class symbols): 1000 to 10000 nM
IC50 (SARS-CoV-2 3CL protease; [1]): < 100 nM

O=c1[nH]cccc1Cn1c(=O)nc(Nc2ccc3c(c2)CCO3)n(Cc2cc(F)c(F)c(F)c2)c1=O [Compound I-0025]
EC50 (SARS-CoV-2; class symbols): 1000 to 10000 nM
IC50 (SARS-CoV-2 3CL protease; [1]): < 100 nM

COc1ccc(Nc2nc(=O)n(Cc3ccc[nH]c3=O)c(=O)n2Cc2cc(F)c(F)c(F)c2)c(F)c1 [Compound I-0026]
EC50 (SARS-CoV-2; class symbols): 1000 to 10000 nM
IC50 (SARS-CoV-2 3CL protease; [1]): < 100 nM

O=c1[nH]cccc1Cn1c(=O)nc(Nc2cccc3[nH]ccc23)n(Cc2cc(F)c(F)c(F)c2)c1=O [Compound I-0031]
EC50 (SARS-CoV-2; CellTiter-Glo 2.0): 4060 nM
EC50 (SARS-CoV-2; class symbols): 1000 to 10000 nM
IC50 (SARS-CoV-2 3CL protease; [1]): 100 to 1000 nM
IC50 (SARS-CoV-2 3CL protease; [2]): 130 nM

Cc1ccc(Cn2c(=O)nc(Nc3cccc(C(F)(F)F)c3)n(Cc3ccc(Cl)c(Cl)c3)c2=O)cc1 [Compound I-066, reference compound]
coronavirus replication inhibitory activity (SARS-CoV-2): did not show coronavirus replication inhibitory activity

Cc1cncc(-n2c(=O)[nH]/c(=N\c3cc4cn(C)nc4cc3Cl)n(Cc3cc(F)c(F)c(F)c3)c2=O)c1 [Compound I-0113]
EC50 (SARS-CoV-2; CellTiter-Glo 2.0): 177 nM

Cc1cncc(-n2c(=O)nc(Nc3cc4cn(C)nc4cc3Cl)n(Cc3cc(F)c(F)cc3F)c2=O)c1 [Compound I-0361]
EC50 (SARS-CoV-2; CellTiter-Glo 2.0): 131 nM

O=C(O)c1ccc(Oc2ccc(/N=c3\[nH]c(=O)n(-c4cccs4)c(=O)n3Cc3ccc(Cl)cc3)cc2)nc1 [Compound I-575, reference compound]
coronavirus replication inhibitory activity (SARS-CoV-2): did not show coronavirus replication inhibitory activity

O=C(O)c1ccc(Oc2ccc(/N=c3\[nH]c(=O)n(-c4ccon4)c(=O)n3Cc3ccc(Cl)cc3)cc2)nc1 [Compound I-580, reference compound]
coronavirus replication inhibitory activity (SARS-CoV-2): did not show coronavirus replication inhibitory activity

CC(C)Oc1ccc(/N=c2\[nH]c(=O)n(Cc3ncn[nH]3)c(=O)n2Cc2ccc(Cl)cc2)cc1F [Compound I-0679, reference compound]
coronavirus replication inhibitory activity (SARS-CoV-2): did not show coronavirus replication inhibitory activity

COc1ncccc1Cn1c(=O)[nH]/c(=N\c2ccc(OC(C)C)c(F)c2)n(Cc2ccc(Cl)cc2)c1=O [Compound I-0683, reference compound]
coronavirus replication inhibitory activity (SARS-CoV-2): did not show coronavirus replication inhibitory activity

CC(C)Oc1ccc(/N=c2\[nH]c(=O)n(Cc3ccc[nH]c3=O)c(=O)n2Cc2ccc(Cl)cc2)cc1F [Compound I-0685, reference compound]
coronavirus replication inhibitory activity (SARS-CoV-2): did not show coronavirus replication inhibitory activity

Cc1nc2ccc(/N=c3\[nH]c(=O)n(C[C@H]4COC(C)(C)O4)c(=O)n3Cc3ccc(Cl)cc3)cc2s1 [Compound I-1603, reference compound]
coronavirus replication inhibitory activity (SARS-CoV-2): did not show coronavirus replication inhibitory activity

Cn1cnc(Cn2c(=O)nc(Nc3cc4cn(C)nc4cc3Cl)n(Cc3cc(F)ccc3F)c2=O)n1 [II-0208]
EC50 (SARS-CoV-2; class symbols): 1000 to 10000 nM

CNc1nc2ccc(Nc3nc(=O)n(-c4cncc(Cl)c4)c(=O)n3Cc3ccc(F)c(C#N)c3)cc2s1 [II-0399]
EC50 (SARS-CoV-2; class symbols): < 1000 nM

O=c1[nH]cccc1Cn1c(=O)nc(NC23CC(Nc4nc(Cl)cc(Cl)n4)(C2)C3)n(Cc2cc(F)c(F)c(F)c2)c1=O [II-0622]
IC50 (SARS-CoV-2 3CL protease; IC50): < 100 nM

Cc1cncc(-n2c(=O)nc(Nc3cc(C)c(N=S4(=O)CCCC4)cc3Cl)n(Cc3cc(Cl)ccc3C)c2=O)c1 [II-0623]
IC50 (SARS-CoV-2 3CL protease; IC50): < 100 nM

Cc1cncc(-n2c(=O)nc(Nc3ccc(N=S4(=O)CCCC4)cc3Cl)n(Cc3cc(Cl)ccc3C)c2=O)c1 [II-0624]
IC50 (SARS-CoV-2 3CL protease; IC50): < 100 nM

Cc1cncc(-n2c(=O)nc(Nc3ccc(N=S(C)(C)=O)cc3Cl)n(Cc3cc(Cl)ccc3C)c2=O)c1 [II-0625]
IC50 (SARS-CoV-2 3CL protease; IC50): < 100 nM

COc1cc(OC)nc(NC23CC(Nc4nc(=O)n(CC5=CC=CNC5C)c(=O)n4Cc4cc(F)c(F)c(F)c4)(C2)C3)n1 (stereo not shown) [II-0626]
IC50 (SARS-CoV-2 3CL protease; IC50): < 100 nM

Cc1cc(C)nc(NC23CC(Nc4nc(=O)n(Cc5ccc[nH]c5=O)c(=O)n4Cc4cc(F)c(F)c(F)c4)(C2)C3)n1 [II-0627]
IC50 (SARS-CoV-2 3CL protease; IC50): < 100 nM

Cc1cncc(-n2c(=O)nc(Nc3cc4cn([C@H]5CC[C@H](N)CC5)nc4cc3Cl)n(Cc3cc(Cl)ccc3Cl)c2=O)c1 [II-0628]
IC50 (SARS-CoV-2 3CL protease; IC50): < 100 nM

Cc1cncc(-n2c(=O)nc(Nc3cc(C)c(N=S(C)(C)=O)cc3Cl)n(Cc3cc(Cl)ccc3C)c2=O)c1 [II-0629]
IC50 (SARS-CoV-2 3CL protease; IC50): < 100 nM

Cc1ccc(Cl)cc1Cn1c(NC23CC(Nc4ncccn4)(C2)C3)nc(=O)n(Cc2ccncc2C)c1=O [II-0630]
IC50 (SARS-CoV-2 3CL protease; IC50): < 100 nM

Cc1cncc(-n2c(=O)nc(Nc3ccc(N=S(C)(C)=O)cc3C)n(Cc3cc(Cl)ccc3C)c2=O)c1 [II-0631]
IC50 (SARS-CoV-2 3CL protease; IC50): < 100 nM

Cc1cncc(-n2c(=O)nc(Nc3ccc(N=S(C)(C)=O)cc3OC(F)(F)F)n(Cc3cc(Cl)ccc3C)c2=O)c1 [II-0632]
IC50 (SARS-CoV-2 3CL protease; IC50): < 100 nM

COc1cc(N=S(C)(C)=O)ccc1Nc1nc(=O)n(-c2cncc(C)c2)c(=O)n1Cc1cc(Cl)ccc1C [II-0633]
IC50 (SARS-CoV-2 3CL protease; IC50): < 100 nM

Cn1cnc(Cn2c(=O)nc(Nc3cc4cn(C)nc4cc3Cl)n(Cc3cc(F)c(F)cc3C(F)(F)F)c2=O)n1 [II-0634]
IC50 (SARS-CoV-2 3CL protease; IC50): < 100 nM

Cn1cnc(Cn2c(=O)nc(Nc3cc4cn(C)nc4cc3Cl)n(Cc3ccc(F)c(F)c3)c2=O)n1 [II-0635]
IC50 (SARS-CoV-2 3CL protease; IC50): < 100 nM

CCOC(=O)c1cc(F)c(F)cc1Cn1c(Nc2cc3cn(C)nc3cc2Cl)nc(=O)n(Cc2ncn(C)n2)c1=O [II-0636]
IC50 (SARS-CoV-2 3CL protease; IC50): < 100 nM

Cc1cnn(Cc2cc(F)c(F)cc2Cn2c(Nc3cc4cn(C)nc4cc3Cl)nc(=O)n(Cc3ncn(C)n3)c2=O)c1 [II-0637]
IC50 (SARS-CoV-2 3CL protease; IC50): < 100 nM

CCOc1c(F)cc(F)cc1Cn1c(Nc2cc3cn(C)nc3cc2Cl)nc(=O)n(Cc2ncn(C)n2)c1=O [II-0638]
IC50 (SARS-CoV-2 3CL protease; IC50): < 100 nM

CCc1c(F)cc(Cl)cc1Cn1c(Nc2cc3cn(C)nc3cc2Cl)nc(=O)n(Cc2ncn(C)n2)c1=O [II-0639]
IC50 (SARS-CoV-2 3CL protease; IC50): < 100 nM

Cn1cnc(Cn2c(=O)nc(Nc3cc4cn(C)nc4cc3Cl)n(Cc3cc(Cl)cc(F)c3Cl)c2=O)n1 [II-0640]
IC50 (SARS-CoV-2 3CL protease; IC50): < 100 nM

Cn1cnc(Cn2c(=O)nc(Nc3cc4cn(C)nc4cc3Cl)n(Cc3cc(Cl)cc(F)c3F)c2=O)n1 [II-0641]
IC50 (SARS-CoV-2 3CL protease; IC50): < 100 nM

Cn1cnc(Cn2c(=O)nc(Nc3cc4cn(C)nc4cc3Cl)n(Cc3cc(Cl)cc(F)c3OCCO)c2=O)n1 [II-0642]
IC50 (SARS-CoV-2 3CL protease; IC50): < 100 nM

CNC(=O)CCn1c(=O)nc(Nc2cc3cn(C)nc3cc2Cl)n(Cc2cc(F)c(F)cc2F)c1=O [II-0643]
IC50 (SARS-CoV-2 3CL protease; IC50): 1000 nM

COc1ccc(Nc2nc(=O)n(Cc3ncn(C)n3)c(=O)n2C2(c3ccc(F)c(F)c3)CC2)cc1 [II-0644]
IC50 (SARS-CoV-2 3CL protease; IC50): 3500 nM
